For ten compounds, IC50 results are on record in ChEMBL document CHEMBL1146265, “Synthesis and structure-activity studies of antofine analogues as potential anticancer agents” (Bioorg Med Chem Lett, 2007).

Some results are limits rather than exact numbers.

Broadly, the IC50 is the midpoint of a concentration-inhibition curve.

Format in all cases: functional, cell-based
In experiment [1] the test system is HCT-116. The experiment in a line: Cytotoxicity against human HCT116 cells by SRB assay. A general note: In SRB staining, fixed cells bind dye roughly in proportion to their protein.
Experiment [2] concerns A549. Briefly: Cytotoxicity against human A549 cells by SRB assay.
Experiment [3] deals with HT-1080. The experiment in a line: Cytotoxicity against human HT1080 cells by SRB assay.

Turning to `COc1cc2c3c(c4ccc(OC(C)C)cc4c2cc1OC)CN1CCCC1C3` (stereo not given), the half-maximal inhibitory concentration (IC50) in experiment [1] was 19.2 nM; in experiment [2] it was 40.5 nM; in experiment [3], 23.6 nM.

`COc1ccc2c3c(c4cc(O)c(OC)cc4c2c1)CC1CCCN1C3` (stereo not given): the values for the IC50 in experiment [1], in experiment [2] and in experiment [3] were 68.3 nM, over 100 nM and 72.6 nM, respectively.

Take `COc1ccc2c3c(c4cc5c(cc4c2c1)OCO5)CC1CCCN1C3` (stereo not given): the IC50 in experiment [1] is 364 nM; in experiment [2], 747 nM; in experiment [3], 453 nM.

On to `COc1cc2c3c(c4ccc(O)cc4c2cc1OC)CN1CCCC1C3` (stereo not given), for which the figures for the IC50 in experiment [1], in experiment [2] and in experiment [3] were 1.1 nM, 1.4 nM and 1.1 nM, respectively.

Turning to `COc1cc2c3c(c4ccccc4c2cc1OC)CN1CCCC1C3` (stereo not given), the IC50 is 49.3 nM in experiment [1], over 100 nM in experiment [2] and 59.1 nM in experiment [3].

Turning to `COc1ccc2c3c(c4cc(OC)c(OC(C)C)cc4c2c1)CC1CCCN1C3` (stereo not given), the IC50 turned out to be 24.7 nM in experiment [1], 53.9 nM in experiment [2] and 37.4 nM in experiment [3].

As to `COc1ccc2c3c(c4cc(OC)c(O)cc4c2c1)CC1CCCN1C3` (stereo not given), the IC50 in experiment [1] worked out at 21.4 nM; in experiment [2], 49.8 nM; in experiment [3], 19.8 nM.

Regarding `COc1ccc2c3c(c4cc(OC(C)C)c(OC)cc4c2c1)CC1CCCN1C3` (stereo not given), the IC50 in experiment [1] is 783 nM; in experiment [2] it was over 1000 nM; in experiment [3], over 1000 nM.

Turning to `COc1ccc2c3c(c4cc(OC)c(OC)cc4c2c1)CC1CCCN1C3` (stereo not drawn) [(+/-)-ANTOFINE], the IC50 came to 29.4 nM in experiment [1], 25.1 nM in experiment [2] and 27.5 nM in experiment [3].

As to `COc1ccc2c3c(c4cc(OC)c(OC)cc4c2c1)C[C@H]1CCCN1C3` [(-)-ANTOFINE], the IC50 in experiment [1] came out at 9.9 nM; in experiment [2], 10.4 nM; in experiment [3] it was 9.6 nM.
